# Assay results: paper PMC3388080 (PLoS ONE, 2012)
# What was measured:
# [1] = Stability in rat plasma
# Procedure: (§1) Pharmacokinetic analyses were performed at F. Hoffmann-La Roche as described in supporting Materials and Methods S1.
# [2] = Pharmacokinetics after single i.v. or p.o. bolus in Wistar rat
# Procedure: as §1
# (§2) Cmax, maximum concentration; Tmax, time at which maximum concentration was observed; AUC, area under the plasma concentration vs. time curve; CL, clearance; Vss, volume of distribution at steady state; T1/2, terminal half-life; F, bioavailability; Fu, Fraction unbound. Plasma values are mean, n=2.
# [3] = Plasma protein binding (free fraction), human plasma
# Procedure: as §1
# [4] = Stability in human plasma
# Procedure: as §1
# [5] = Plasma protein binding (free fraction), rat plasma
# Procedure: as §1, §2
# [6] = test system: alpha 1 (non-selective); test: CEREP radioligand binding; settings: % of control specific binding
# Procedure: (§3) SB-334867 was evaluated in a selectivity screen performed at CEREP (Paris, France). The screen consisted of binding assays on a panel of 79 target receptors. The specific binding (SB) of a radioligand to each target receptor was defined as the difference between the total binding and the nonspecific binding determined in the presence of a cold competitor in excess. […] Details on the CEREP screen are available from www.cerep.fr.
# [7] = target: T1, NK1 (h) (Homo sapiens, UniProt P25103); test: CEREP radioligand binding; settings: % of control specific binding
# T1 construct: purchased CEREP
# Procedure: as §3
# [8] = target: T2, 5-HT3 (h) (Homo sapiens, UniProt P46098); test: CEREP radioligand binding; settings: % of control specific binding
# T2 construct: purchased CEREP
# Procedure: as §3
# [9] = target: T3, 5-HT5A (h) (Homo sapiens, UniProt P47898); test: CEREP radioligand binding; settings: % of control specific binding
# T3 construct: purchased CEREP
# Procedure: as §3
# [10] = target: T4, D5 (h) (Homo sapiens, UniProt P21918); test: CEREP radioligand binding; settings: % of control specific binding
# T4 construct: purchased CEREP
# Procedure: as §3
# [11] = target: T5, A2A (h) (Homo sapiens, UniProt P29274); test: CEREP radioligand binding
# T5 construct: purchased CEREP
# T5 sequence (P29274 whole entry): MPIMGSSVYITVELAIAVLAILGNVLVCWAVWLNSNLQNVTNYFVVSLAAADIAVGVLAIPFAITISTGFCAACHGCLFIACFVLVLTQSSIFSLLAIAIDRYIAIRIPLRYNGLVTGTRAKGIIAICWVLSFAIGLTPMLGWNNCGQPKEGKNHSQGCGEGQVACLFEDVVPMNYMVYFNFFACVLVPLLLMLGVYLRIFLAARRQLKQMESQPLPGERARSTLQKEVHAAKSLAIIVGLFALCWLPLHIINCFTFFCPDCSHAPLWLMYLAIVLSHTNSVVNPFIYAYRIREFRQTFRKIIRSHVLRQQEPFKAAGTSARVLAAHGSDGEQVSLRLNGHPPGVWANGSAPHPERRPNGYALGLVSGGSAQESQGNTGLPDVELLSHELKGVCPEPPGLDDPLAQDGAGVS
# Procedure: as §3
# [12] = test system: GABA (non-selective); test: CEREP radioligand binding; settings: % of control specific binding
# Procedure: as §3
# [13] = target: T6, GAL2 (h) (Homo sapiens, UniProt O43603); test: CEREP radioligand binding; settings: % of control specific binding
# T6 construct: purchased CEREP
# T6 sequence (O43603 whole entry): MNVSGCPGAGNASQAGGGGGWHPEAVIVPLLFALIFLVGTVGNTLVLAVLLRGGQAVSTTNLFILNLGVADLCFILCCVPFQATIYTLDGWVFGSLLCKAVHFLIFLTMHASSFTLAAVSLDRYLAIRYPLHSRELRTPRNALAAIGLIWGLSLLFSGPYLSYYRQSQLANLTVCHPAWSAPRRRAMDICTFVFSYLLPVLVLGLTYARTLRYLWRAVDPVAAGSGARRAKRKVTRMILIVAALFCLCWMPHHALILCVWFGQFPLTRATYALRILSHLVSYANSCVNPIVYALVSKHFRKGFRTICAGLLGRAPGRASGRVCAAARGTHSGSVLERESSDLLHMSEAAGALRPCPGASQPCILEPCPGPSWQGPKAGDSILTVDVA
# Procedure: as §3
# [14] = target: T7, D4.4 (h) (Homo sapiens, UniProt P21917); test: CEREP radioligand binding; settings: % of control specific binding
# T7 construct: purchased CEREP
# Procedure: as §3
# [15] = target: T8, CB1 (h) (Homo sapiens, UniProt P21554); test: CEREP radioligand binding; settings: % of control specific binding
# T8 construct: purchased CEREP
# Procedure: as §3
# [16] = target: T9, mu (h) (MOP) (agonist site) (Homo sapiens, UniProt P35372); test: CEREP radioligand binding; settings: % of control specific binding
# T9 construct: purchased CEREP
# Procedure: as §3
# [17] = target: T10, CXCR2 (h) (IL-8B) (Homo sapiens, UniProt P25025); test: CEREP radioligand binding; settings: % of control specific binding
# T10 construct: purchased CEREP
# T10 sequence (P25025 whole entry): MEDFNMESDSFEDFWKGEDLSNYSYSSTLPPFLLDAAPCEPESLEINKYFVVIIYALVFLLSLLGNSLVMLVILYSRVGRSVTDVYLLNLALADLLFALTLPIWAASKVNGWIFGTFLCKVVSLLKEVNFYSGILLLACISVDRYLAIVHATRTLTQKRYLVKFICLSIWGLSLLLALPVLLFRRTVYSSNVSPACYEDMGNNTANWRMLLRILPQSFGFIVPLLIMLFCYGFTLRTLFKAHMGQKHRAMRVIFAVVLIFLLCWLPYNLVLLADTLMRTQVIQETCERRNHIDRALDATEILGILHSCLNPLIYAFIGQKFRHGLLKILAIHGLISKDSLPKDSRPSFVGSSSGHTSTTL
# Procedure: as §3
# [18] = target: T11, NK3 (h) (Homo sapiens, UniProt P29371); test: CEREP radioligand binding; settings: % of control specific binding
# T11 construct: purchased CEREP
# T11 sequence (P29371 whole entry): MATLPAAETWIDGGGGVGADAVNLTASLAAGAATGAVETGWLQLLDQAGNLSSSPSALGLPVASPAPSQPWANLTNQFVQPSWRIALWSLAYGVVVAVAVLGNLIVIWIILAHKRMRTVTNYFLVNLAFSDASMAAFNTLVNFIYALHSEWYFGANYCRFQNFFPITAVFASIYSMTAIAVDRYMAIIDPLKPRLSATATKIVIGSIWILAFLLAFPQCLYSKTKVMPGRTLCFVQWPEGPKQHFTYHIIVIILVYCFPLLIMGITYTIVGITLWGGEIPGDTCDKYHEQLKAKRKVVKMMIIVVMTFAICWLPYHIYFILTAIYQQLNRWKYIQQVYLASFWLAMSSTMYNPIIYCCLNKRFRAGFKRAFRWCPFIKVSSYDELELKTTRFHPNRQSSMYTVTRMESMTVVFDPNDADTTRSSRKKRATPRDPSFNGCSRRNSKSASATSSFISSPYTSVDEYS
# Procedure: as §3
# [19] = test system: ML2 (MT3); test: CEREP radioligand binding
# Procedure: as §3
# [20] = target: T12, CCKB (h) (CCK2) (Homo sapiens, UniProt P32239); test: CEREP radioligand binding; settings: % of control specific binding
# T12 construct: purchased CEREP
# T12 sequence (P32239 whole entry): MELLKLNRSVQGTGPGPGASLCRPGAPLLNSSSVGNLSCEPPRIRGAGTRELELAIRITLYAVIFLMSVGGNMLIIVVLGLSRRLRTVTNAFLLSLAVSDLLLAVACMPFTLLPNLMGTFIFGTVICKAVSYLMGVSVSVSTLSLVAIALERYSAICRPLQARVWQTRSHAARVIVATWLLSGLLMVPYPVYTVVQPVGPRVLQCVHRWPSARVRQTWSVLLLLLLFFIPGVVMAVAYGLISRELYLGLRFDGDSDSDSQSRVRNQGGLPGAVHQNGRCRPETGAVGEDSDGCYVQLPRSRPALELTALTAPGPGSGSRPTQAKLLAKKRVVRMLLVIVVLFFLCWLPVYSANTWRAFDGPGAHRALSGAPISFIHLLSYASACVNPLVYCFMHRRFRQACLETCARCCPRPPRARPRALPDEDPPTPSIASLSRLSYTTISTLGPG
# Procedure: as §3
# [21] = target: T13, DA transporter (h) (Homo sapiens, UniProt Q01959); test: CEREP radioligand binding; settings: % of control specific binding
# T13 construct: purchased CEREP
# T13 sequence (Q01959 whole entry): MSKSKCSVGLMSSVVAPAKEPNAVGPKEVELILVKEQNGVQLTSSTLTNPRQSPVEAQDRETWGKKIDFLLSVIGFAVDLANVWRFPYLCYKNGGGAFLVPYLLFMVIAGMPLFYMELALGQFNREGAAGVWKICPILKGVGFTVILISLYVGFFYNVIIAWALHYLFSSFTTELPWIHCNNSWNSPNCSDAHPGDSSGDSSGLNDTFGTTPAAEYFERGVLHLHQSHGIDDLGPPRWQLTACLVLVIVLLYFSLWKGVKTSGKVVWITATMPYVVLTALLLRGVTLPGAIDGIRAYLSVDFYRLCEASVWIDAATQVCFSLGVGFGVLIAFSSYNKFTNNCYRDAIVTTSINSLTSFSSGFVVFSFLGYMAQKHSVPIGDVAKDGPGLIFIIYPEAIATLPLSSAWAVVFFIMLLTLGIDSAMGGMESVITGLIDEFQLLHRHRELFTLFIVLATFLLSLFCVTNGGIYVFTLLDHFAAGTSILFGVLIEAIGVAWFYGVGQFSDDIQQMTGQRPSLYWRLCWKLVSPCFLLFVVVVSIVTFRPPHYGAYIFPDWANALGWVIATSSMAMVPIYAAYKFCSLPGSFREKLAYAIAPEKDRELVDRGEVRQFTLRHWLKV
# Procedure: as §3
# [22] = test system: Cl- channel; test: CEREP radioligand binding; settings: % of control specific binding
# Procedure: as §3
# [23] = target: T14, delta 2 (h) (DOP) (Homo sapiens, UniProt P41143); test: CEREP radioligand binding; settings: % of control specific binding
# T14 construct: purchased CEREP
# T14 sequence (P41143 whole entry): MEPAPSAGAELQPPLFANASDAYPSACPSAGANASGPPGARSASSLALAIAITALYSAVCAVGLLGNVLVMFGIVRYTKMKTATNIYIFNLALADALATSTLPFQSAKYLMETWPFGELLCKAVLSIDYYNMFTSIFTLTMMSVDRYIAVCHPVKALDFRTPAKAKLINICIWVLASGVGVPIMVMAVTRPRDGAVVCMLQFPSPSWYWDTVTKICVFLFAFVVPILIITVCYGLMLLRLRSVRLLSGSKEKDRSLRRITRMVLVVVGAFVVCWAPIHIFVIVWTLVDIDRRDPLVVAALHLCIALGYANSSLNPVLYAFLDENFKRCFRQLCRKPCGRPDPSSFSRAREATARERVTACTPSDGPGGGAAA
# Procedure: as §3
# [24] = test system: BZD (central); test: CEREP radioligand binding; settings: % of control specific binding
# Procedure: as §3
# [25] = test system: sst (non-selective); test: CEREP radioligand binding; settings: % of control specific binding
# Procedure: as §3
# [26] = target: T15, 5-HT6 (h) (Homo sapiens, UniProt P50406); test: CEREP radioligand binding; settings: % of control specific binding
# T15 construct: purchased CEREP
# T15 sequence (P50406 whole entry): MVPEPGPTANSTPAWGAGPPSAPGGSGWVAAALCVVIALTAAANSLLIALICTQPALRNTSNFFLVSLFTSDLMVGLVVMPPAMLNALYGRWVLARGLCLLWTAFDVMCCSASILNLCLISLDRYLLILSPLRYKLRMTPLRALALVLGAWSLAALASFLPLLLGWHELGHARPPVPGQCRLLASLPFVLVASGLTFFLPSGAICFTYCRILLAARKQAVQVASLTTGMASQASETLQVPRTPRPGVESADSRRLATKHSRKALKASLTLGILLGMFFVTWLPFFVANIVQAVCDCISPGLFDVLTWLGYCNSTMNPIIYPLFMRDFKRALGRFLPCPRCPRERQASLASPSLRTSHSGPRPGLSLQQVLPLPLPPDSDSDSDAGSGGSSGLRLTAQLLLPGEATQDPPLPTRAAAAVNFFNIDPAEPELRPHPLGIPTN
# Procedure: as §3
# [27] = target: T16, beta 2 (h) (Homo sapiens, UniProt P07550); test: CEREP radioligand binding; settings: % of control specific binding
# T16 construct: purchased CEREP
# T16 sequence (P07550 whole entry): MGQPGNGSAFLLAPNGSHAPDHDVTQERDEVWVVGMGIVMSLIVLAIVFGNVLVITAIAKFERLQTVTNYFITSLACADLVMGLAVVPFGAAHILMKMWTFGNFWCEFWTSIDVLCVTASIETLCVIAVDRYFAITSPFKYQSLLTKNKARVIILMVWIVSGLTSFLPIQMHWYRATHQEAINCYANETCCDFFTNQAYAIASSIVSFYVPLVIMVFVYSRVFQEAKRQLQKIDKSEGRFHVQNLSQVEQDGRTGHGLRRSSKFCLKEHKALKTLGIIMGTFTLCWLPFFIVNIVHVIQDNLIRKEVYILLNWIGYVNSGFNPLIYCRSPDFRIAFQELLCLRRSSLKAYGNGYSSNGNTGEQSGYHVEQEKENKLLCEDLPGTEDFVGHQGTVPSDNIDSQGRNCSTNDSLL
# Procedure: as §3
# [28] = target: T17, NE transporter (h) (Homo sapiens, UniProt P23975); test: CEREP radioligand binding; settings: % of control specific binding
# T17 construct: purchased CEREP
# Procedure: as §3
# [29] = test system: Na+ channel (site 2); test: CEREP radioligand binding; settings: % of control specific binding
# Procedure: as §3
# [30] = target: T18, GAL1 (h) (Homo sapiens, UniProt P47211); test: CEREP radioligand binding; settings: % of control specific binding
# T18 construct: purchased CEREP
# T18 sequence (P47211 whole entry): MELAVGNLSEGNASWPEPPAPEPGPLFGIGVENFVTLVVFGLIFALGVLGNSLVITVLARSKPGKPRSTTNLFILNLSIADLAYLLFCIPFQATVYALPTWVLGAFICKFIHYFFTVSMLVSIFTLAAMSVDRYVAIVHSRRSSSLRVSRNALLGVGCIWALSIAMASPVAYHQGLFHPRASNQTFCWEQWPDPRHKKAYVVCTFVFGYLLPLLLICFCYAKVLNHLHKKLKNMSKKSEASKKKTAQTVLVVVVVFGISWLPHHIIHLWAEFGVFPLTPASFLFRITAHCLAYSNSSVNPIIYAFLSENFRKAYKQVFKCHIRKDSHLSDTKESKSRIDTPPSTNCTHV
# Procedure: as §3
# [31] = target: T19, B2 (h) (Homo sapiens, UniProt P30411); test: CEREP radioligand binding; settings: % of control specific binding
# T19 construct: purchased CEREP
# T19 sequence (P30411 whole entry): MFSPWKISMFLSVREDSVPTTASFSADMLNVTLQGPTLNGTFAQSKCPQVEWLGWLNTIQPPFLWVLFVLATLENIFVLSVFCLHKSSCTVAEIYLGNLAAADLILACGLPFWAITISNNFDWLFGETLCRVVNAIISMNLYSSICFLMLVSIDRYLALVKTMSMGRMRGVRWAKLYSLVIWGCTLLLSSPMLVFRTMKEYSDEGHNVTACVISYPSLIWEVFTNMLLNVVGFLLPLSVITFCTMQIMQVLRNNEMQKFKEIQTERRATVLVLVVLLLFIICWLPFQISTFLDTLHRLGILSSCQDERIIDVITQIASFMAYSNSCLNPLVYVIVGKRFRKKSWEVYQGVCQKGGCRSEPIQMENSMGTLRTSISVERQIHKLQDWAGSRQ
# Procedure: as §3
# [32] = target: T20, ETA (h) (Homo sapiens, UniProt P25101); test: CEREP radioligand binding; settings: % of control specific binding
# T20 construct: purchased CEREP
# Procedure: as §3
# [33] = test system: Male Wistar rats; test: Spontaneous locomotor activity during the active phase; format: in vivo, rat; settings: for spontaneous LMA: vehicle 6097±536; for effect on spontaneous LMA (in words): 3, 10, 30 mg/kg ip at ZT15, almorexant significant only at 30 mg/kg, SB-334867 at 10 and 30 mg/kg
# Procedure: Locomotor activity (LMA) was evaluated at F. Hoffmann-La Roche as described previously. Male Wistar rats were placed for 2 weeks in a 12 h light/12 h dark cycle with light onset at 22∶00 (ZT0). […] Spontaneous LMA was recorded for a period of 30 min. At the end of the experiment, the brain and plasma were collected for determination of the drug exposure and brain/plasma concentration ratio.
# Horizontal locomotor activity was recorded for a period of 30 min. Numbers on the X-axes represent intraperitoneal doses in mg/kg.***p<0.001, **p<0.01, *p<0.05 vs. Veh (one-way ANOVA followed by Dunnett’s analysis). All data are mean±SEM (n = 8 per group).
# [34] = i.v., dose 2.40 / 5.18 / 12.10 mg/kg
# [35] = p.o., dose 6.35 / 8.75 / 18.16 mg/kg
structure (smiles),measurement,setting,value
"Cc1nc2ccc(NC(=O)Nc3ccnc4cccnc34)cc2o1.Cl [SB-334867, 1-(2-methylbenzoxazol-6-yl)-3-[1], [5]naphthyridin-4-yl-urea hydrochloride]",stability in plasma,[1]; 1 h,104%
same,stability in plasma,[1]; 4 h,110%
same,CL,[2]; i.v.,5.40 mL/min/kg
same,Vss,[2]; i.v.,0.57 L/kg
same,AUC/Dose,[2]; [34],3118.90 ng/h/mL
same,T1/2 (terminal half-life),[2]; [34],1.21 h
same,Tmax,[2]; [34],0.00 h
same,Cmax/Dose,"[2]; i.v., dose almorexant 2.40, SB-334867 5.18, SB-408124 12.10 mg/kg",1937.40 ng/mL
same,F (bioavailability),[2]; p.o.,45.70%
same,AUC/Dose,[2]; [35],1423.50 ng/h/mL
same,T1/2 (terminal half-life),[2]; [35],3.10 h
same,Tmax,[2]; [35],1.50 h
same,Cmax/Dose,"[2]; p.o., dose almorexant 6.35, SB-334867 8.75, SB-408124 18.16 mg/kg",331.10 ng/mL
same,Vss (in words),[2]; rat,medium
same,oral bioavailability (in words),[2]; rat,medium
same,systemic plasma clearance (in words),[2]; rat,low
same,free fraction,[3],1.3%
same,stability in plasma,[4]; 1 h,95%
same,stability in plasma,[4]; 4 h,93%
same,Fu (fraction unbound / free fraction),[5],0.8%
same,% Control (10 µM) Mean SB,[6],87.5%
same,% Control (10 µM) Mean SB,[7],104.4%
same,% Control (10 µM) Mean SB,[8],93.9%
same,% Control (10 µM) Mean SB,[9],84.1%
same,% Control (10 µM) Mean SB,[10],118.6%
same,displacement of specific binding,"[11]; 10 µM, A2A (adenosine)",89%
same,% Control (10 µM) Mean SB,[11]; % of control specific binding,10.6%
same,% Control (10 µM) Mean SB,[12],105.5%
same,% Control (10 µM) Mean SB,[13],97.3%
same,% Control (10 µM) Mean SB,[14],95.9%
same,% Control (10 µM) Mean SB,[15],104.1%
same,% Control (10 µM) Mean SB,[16],86.3%
same,% Control (10 µM) Mean SB,[17],110.5%
same,% Control (10 µM) Mean SB,[18],86.3%
same,displacement of specific binding,"[19]; 10 µM, MT3 (melatonin)",102%
same,% Control (10 µM) Mean SB,[19]; % of control specific binding,-1.6%
same,% Control (10 µM) Mean SB,[20],135.1%
same,% Control (10 µM) Mean SB,[21],72.4%
same,% Control (10 µM) Mean SB,[22],90.6%
same,% Control (10 µM) Mean SB,[23],86.1%
same,% Control (10 µM) Mean SB,[24],89.4%
same,% Control (10 µM) Mean SB,[25],88.9%
same,% Control (10 µM) Mean SB,[26],102.9%
same,% Control (10 µM) Mean SB,[27],94.6%
same,% Control (10 µM) Mean SB,[28],49.4%
same,% Control (10 µM) Mean SB,[29],62.8%
same,% Control (10 µM) Mean SB,[30],118.5%
same,% Control (10 µM) Mean SB,[31],97%
same,% Control (10 µM) Mean SB,[32],97.3%
same,spontaneous LMA,"[33]; 10 mg/kg ip at ZT15, 30 min recording",3509±383
same,spontaneous LMA,"[33]; 30 mg/kg ip at ZT15, 30 min recording",2626±341
same,effect on spontaneous LMA (in words),[33],dose-dependently reduced spontaneous LMA
"CNC(=O)[C@@H](c1ccccc1)N1CCc2cc(OC)c(OC)cc2[C@@H]1CCc1ccc(C(F)(F)F)cc1 [almorexant, (2R)-2-[(1S)-6,7-Dimethoxy-1-[2-(4-trifluoromethyl-phenyl)-ethyl]-3,4-dihydro-1H-isoquinolin-2-yl]-N-methyl-2-phenyl-acetamide]",stability in plasma,[1]; 2 h,95.0%
same,AUC/Dose,"[2]; Wistar, rat, in vivo, iv",193.70 ng/h/mL
same,Tmax,"[2]; Wistar, rat, in vivo, iv",0 h
same,Vd,"[2]; Wistar, rat, in vivo, iv",9.45 L/kg
same,clearance,"[2]; Wistar, rat, in vivo, iv",87.1 mL/min/kg
same,half-life,"[2]; Wistar, rat, in vivo, iv",2.58 h
same,Cmax/Dose,"[2]; Wistar, rat, in vivo, iv, 12.1 mg/kg",238.20 ng/mL
same,AUC/Dose,"[2]; Wistar, rat, in vivo, po",28.00 ng/h/mL
same,Tmax,"[2]; Wistar, rat, in vivo, po",0.5 h
same,bioavailability,"[2]; Wistar, rat, in vivo, po",14.4%
same,half-life,"[2]; Wistar, rat, in vivo, po",1.29 h
same,Cmax/Dose,"[2]; Wistar, rat, in vivo, po, 18.16 mg/kg",12.90 ng/mL
same,Vss (in words),"[2]; rat, in vivo",high
same,systemic plasma clearance (in words),"[2]; rat, in vivo",high
same,oral bioavailability (in words),"[2]; rat, in vivo, po",low
same,fraction unbound,"[3]; human, plasma",< 0.037
same,stability in plasma,[4]; 2 h,90.0%
same,fraction unbound,"[5]; rat, plasma",< 0.087
same,effect on spontaneous LMA (in words),[33],dose-dependently reduced LMA
